Tested on: germ-free Swiss-Webster mice
Experiment: Fecal or culture transplantation into germ-free mice followed by OGTT
Type: in vivo
Text: C57Bl/6 WT adult male mice were randomly assigned (without blinding) to treatment groups and were given commercial artificial sweeteners (saccharin-, sucralose- or aspartame-based) or pure saccharin (Sigma Aldrich) in drinking water and fed a high-fat (HFD D12492, 60% Kcal from fat, Research Diets) or standard polysaccharide normal chow (NC) diet (Harlan-Teklad). Compared groups were always fed from the same batch of diet. For antibiotic treatment, mice were given a combination of ciprofloxacin (0.2 gl^−1) and metronidazole ([…]) or vancomycin (0.5 gl^−1) in their drinking water. All antibiotics were obtained from Sigma Aldrich. Adult male outbred Swiss-Webster mice (a widely used mouse strain in germ-free experiments) served as recipients for fecal transplants and were housed in sterile isolators (Park Biosciences). For fecal transplantation experiments, 200 mg of stool (from mouse pellets or human swabs) was resuspended in 5 ml of PBS under anaerobic conditions, vortexed for 3 minutes and allowed to settle by gravity for 2 minutes. Recipient mice were gavaged with 200 μl of the supernatant and maintained on standard NC diet and water throughout the experiment.
Mice were fasted for 6 hours during the light phase, with free access to water. In all groups of mice where the drinking regime was other than water, it was substituted for water for the period of the fasting and glucose or insulin tolerance test. Blood from the tail vein was used to measure glucose levels using a glucometer (Bayer) immediately before and 15, 30, 60, 90 and 120 minutes after oral feeding with 40 mg glucose (J.T. Baker) or intra-peritoneal injection with 0.1 Ukg^−1 Insulin (Biological Industries). Plasma fasting insulin levels were measured in sera collected immediately before the start of GTT using ELISA (Ultra Sensitive Mouse Insulin ELISA Kit, Crystal Chem).
pooled fecal matter from naïve adult WT C57Bl/6 male mice was resuspended in 5 ml PBS in an anaerobic chamber (Coy Laboratory Products, 75% N2, 20% CO2, 5% H2), vortexed for 3 minutes and allowed to settle by gravity for 2 minutes. […] were added to a tube containing Chopped Meat Carbohydrate Broth, PR II (BD) and […] of a 5 mgml-1 saccharin solution or an equal volume of PBS. Every 3 days, 500 ml of culture were diluted to fresh medium containing saccharin or PBS. After 9 days, cultures were used for inoculation of germ-free mice.

O=C1NS(=O)(=O)c2ccccc21 [saccharin]
glucose tolerance of germ-free recipients (D7 (post exposure) vs D1 stool from human NAS responders after 7 days commercial saccharin, P<0.004, P<0.02): significant glucose intolerance
glucose tolerance of germ-free recipients (D7 vs D1 stool from two human NAS non-responders): normal glucose tolerance
glucose tolerance of germ-free recipients (donors HFD-consuming mice drinking pure saccharin vs water, p<0.004): replicated the glucose intolerance phenotype
glucose tolerance of germ-free recipients (recipients of in vitro saccharin-treated (5 mgml^−1) fecal culture vs control culture, 6 days, p<0.002): significantly higher glucose intolerance
